# Patent US8877980B2, “Phenylboronic acid” (Al-Urdonia Lemudaddat Al-Ajsam Co., priority 2012, dated 2014)
# Where two headings read alike, the source gives them in different places.
# Key:
# MRSA clinical strain [1] = assay: Broth microdilution MIC determination; assay type: cell-based, methicillin resistant S. aureus; settings: for MIC: Staphylococcus aureus, 24 h
# E. coli ATCC 8739 [2] = assay: Broth microdilution MIC determination; assay type: cell-based
# Experimental: (§1) The following bacterial strains were used; S. aureus ATCC 29350, E. coli ATCC 8739, and P. aeruginosa ATCC 27853. The cultivation medium for P. aeruginosa and E. coli were tryptone soy Agar (Oxoid, UK), and, 5% defibrinated sheep blood added to columbia blood agar base (Oxoid, UK). The bacterial cultures were aerobically grown at 37° C. for 24 hrs. For antimicrobial testing, the bacterial cultures were prepared by picking colonies from logarithmic phase of growth and suspended in 5 ml of Mueller Hinton broth with suitable supplements. The bacterium inoculum sizes were adjusted to 10^8 CFU/ml for all strains.
# (§2) solutions of 2-(bromoacetamido)phenylboronic acid were prepared by gradually dissolving 2-(bromoacetamido)phenylboronic acid to the maximum solubility in 100% DMSO (1 mg/ml). Similarly standard stock solution of Vancomycin and Penicillin (1 mg/ml) were used as positive controls.
# For the broth microdilution test, 100 μL of each bacterial suspension in suitable growth medium was added to the wells of a sterile 96-well microtitre plate already containing 100 μL of two-fold serially diluted 2-(bromoacetamido)phenylboronic acid or vancomycin and penicillin in proper growth medium. The final volume in each well was 200 μL. Control wells were prepared with culture medium, bacterial suspension only compound only and DMSO in amounts corresponding to the highest quantity present. […]
# S. aureus ATCC 2592 [3] = assay: Broth microdilution MIC determination; assay type: cell-based; settings: Staphylococcus aureus, ATCC2592, 24 h, MTT readout
# E. coli ATCC 8739 [4] = assay: Disk diffusion; assay type: cell-based
# Experimental: as §1, §2
# (§3) For the disk diffusion assay, bacterial suspensions were prepared to the standard McFarland's (0.5) and subsequently uniformly spread on a solid growth medium in a Petri dish. Sterile paper disks (6 mm in diameter; oxoid, UK) were placed on the surface of each agar plate and were impregnated with 30 μL to a final concentration of 600 ug/ml of each agent to be tested. The plates were incubated for the recommended time periods (18-24 hrs) under appropriate cultivation conditions. Antibacterial activity was determined by measuring an inhibition zone around a disk following the incubation. Disks impregnated with sterile distilled water, DMSO served as negative controls and disks with standard antibiotics Vancomycin and penicillin (Oxoid, UK) served as positive controls. Triplicates at each concentration were performed and the average of the results was taken.
# S. aureus ATCC 2592 [5] = assay: Disk diffusion; assay type: cell-based
# [6] = Single dose acute toxicity study and LD50 determination; assay type: in vivo, mice; settings: mouse, in vivo; acute oral, dissolved in DMSO, BALB/c mice; curve generated
# Experimental: (§4) Results of Acute Toxicity of 2-(bromoacetamido)phenylboronic Acid in Balb/c Mice
# (§5) • a. […] This effect started 30 minutes post treatment. The activity was recovered after 3 hours post treatment (for survived animals). […] The time of deaths was observed as dose dependent. Mice treated with 150 mg/kg died within 18 hours of 2-(bromoacetamido)phenylboronic acid administration while mice treated with 200 mg/kg died within 4 hours post treatment. • e.
# Balb/c Mice = assay: as above; assay type: in vivo
# Experimental: as §4, §5
# [7] = Maximum solubility in DMSO (stock solution); assay type: physicochemical; settings: 100% DMSO, organic solvent or mixture, thermodynamic from solid
# Experimental: as §2
# P. aerugionsa ATCC 27853 [8] = assay: Broth microdilution MIC determination; assay type: cell-based, P. aeruginosa; settings: for MIC: Pseudomonas aeruginosa
# Experimental: as §1, §2
# For the broth microdilution test, 100 μL of each bacterial suspension in suitable growth medium was added to the wells of a sterile 96-well microtitre plate already containing 100 μL of two-fold serially diluted 2-(bromoacetamido)phenylboronic acid or vancomycin and penicillin in proper growth medium. The final volume in each well was 200 μL. Control wells were prepared with culture medium, bacterial suspension only compound only and DMSO in amounts corresponding to the highest quantity present. […] To indicate cell viability, the presence of a purple color was determined after adding 20 μL/well of 500 ug/ml MTT (3-(4,5-Dimethylthiazol-2-yl-2,5-diphenyltetrazolium bromide, Sigma) and incubated under appropriate cultivation conditions (37° C. for 3 hrs). To determine the formation of formazan by living cells, OD570 was measured by a Microplate Reader (Thermoscientific, Finland) after adding 200 μL/well of a solubilizing solution (a mixture of DMSO:ethanol (1:1)). Positive controls were wells with a bacterial suspension in an appropriate growth medium. Negative controls were wells with growth medium and antimicrobial compound. […]
# P. aerugionsa ATCC 27853 [9] = assay: Disk diffusion; assay type: cell-based; settings: P. aeruginosa ATCC 27853
# Experimental: as §1, §2, §3
# MRSA clinical strain [10] = assay: Disk diffusion; assay type: cell-based, methicillin resistant S. aureus
smiles,measurement,setting,value
O=C(CBr)Nc1ccccc1B(O)O [2-(bromoacetamido)phenylboronic acid],Growth inhibition (statement in words),"MRSA clinical strain [1]; MRSA, general statement of the description, method not named",inhibits the growth
same,MIC,"MRSA clinical strain [1]; MRSA clinical strain, MTT readout, read-out: MIC",1.56 µg/mL
same,Growth inhibition (statement in words),"E. coli ATCC 8739 [2]; E. coli, general statement of the description, method not named",inhibits the growth
same,MIC,"E. coli ATCC 8739 [2]; Escherichia coli, ATCC8739, E. coli ATCC 8739, 24 h, MTT readout",75 µg/mL
same,MIC,S. aureus ATCC 2592 [3],1.56 µg/mL
same,zone of inhibition at 600 µg/mL,"E. coli ATCC 8739 [4]; Escherichia coli, ATCC8739, agent concentration as in row label (ampicillin 20 mg/ml, compound 600 μg/ml)",16 mm
same,zone of inhibition at 600 µg/mL,"S. aureus ATCC 2592 [5]; Staphylococcus aureus, ATCC2592, agent concentration as in row label (vancomycin 100 μg/ml, compound 600 μg/ml)",24 mm
same,LD50 at 14 days,[6],~130 mg/kg
same,% Death/group,Balb/c Mice; 10 mg/kg single oral dose in DMSO,0%
same,% Death/group,Balb/c Mice; 50 mg/kg single oral dose in DMSO,0%
same,% Death/group,Balb/c Mice; 100 mg/kg single oral dose in DMSO,0%
same,Time of death after administration,Balb/c Mice; 150 mg/kg,≤ 18 h
same,% Death/group,Balb/c Mice; 150 mg/kg single oral dose in DMSO,70%
same,Time of death after administration,Balb/c Mice; 200 mg/kg,≤ 4 h
same,% Death/group,Balb/c Mice; 200 mg/kg single oral dose in DMSO,70%
same,Behaviour and clinical signs post administration,"Balb/c Mice; 10, 50 and 100 mg/kg",behaved normally
same,Behaviour and clinical signs post administration,Balb/c Mice; 150 and 200 mg/kg,Reduced activity
same,Start of reduced activity post treatment,Balb/c Mice; 150 and 200 mg/kg,30 min
same,Recovery of activity post treatment,"Balb/c Mice; 150 and 200 mg/kg, survived animals",3 h
same,Doses showing systemic toxicity and causing death,"Balb/c Mice; acute oral, dissolved in DMSO, BALB/c mice",above 100 mg/kg
same,Change in body weights,Balb/c Mice; all groups,No significant change
same,Gross autopsy,Balb/c Mice; dead mice and all survivors at day 14,did not reveal any significant findings
same,% Death/gender,"Balb/c Mice; females, 10 mg/kg single oral dose in DMSO",0%
same,% Death/gender,"Balb/c Mice; females, 50 mg/kg single oral dose in DMSO",0%
same,% Death/gender,"Balb/c Mice; females, 100 mg/kg single oral dose in DMSO",0%
same,% Death/gender,"Balb/c Mice; females, 150 mg/kg single oral dose in DMSO",100%
same,% Death/gender,"Balb/c Mice; males, 10 mg/kg single oral dose in DMSO",0%
same,% Death/gender,"Balb/c Mice; males, 50 mg/kg single oral dose in DMSO",0%
same,% Death/gender,"Balb/c Mice; males, 100 mg/kg single oral dose in DMSO",0%
same,% Death/gender,"Balb/c Mice; males, 150 mg/kg single oral dose in DMSO",40%
same,% Death/gender,"Balb/c Mice; males, 200 mg/kg single oral dose in DMSO",80%
same,solubility,[7],1000 µg/mL
same,Growth inhibition (statement in words),"P. aerugionsa ATCC 27853 [8]; P. aeruginosa, general statement of the description, method not named",inhibits the growth
same,MIC,"P. aerugionsa ATCC 27853 [8]; ATCC27853, P. aeruginosa ATCC 27853, 24 h, MTT readout, read-out: MIC",> 600 µg/mL
"CC1(C)S[C@@H]2[C@H](NC(=O)[C@H](N)c3ccccc3)C(=O)N2[C@H]1C(=O)O [Ampicillin, reference compound]",Susceptibility category (S/R) beside zone of inhibition,P. aerugionsa ATCC 27853 [9],R
same,Susceptibility category (S/R) beside zone of inhibition,E. coli ATCC 8739 [4],S
same,MIC,"P. aerugionsa ATCC 27853 [8]; ATCC27853, 24 h",150 µg/mL
"CN[C@H](CC(C)C)C(=O)N[C@H]1C(=O)N[C@@H](CC(N)=O)C(=O)N[C@H]2C(=O)N[C@H]3C(=O)N[C@H](C(=O)N[C@H](C(=O)O)c4cc(O)cc(O)c4-c4cc3ccc4O)[C@H](O)c3ccc(c(Cl)c3)Oc3cc2cc(c3O[C@@H]2O[C@H](CO)[C@@H](O)[C@H](O)[C@H]2O[C@H]2C[C@](C)(N)[C@H](O)[C@H](C)O2)Oc2ccc(cc2Cl)[C@H]1O [Vancomycin, reference compound]",MIC,MRSA clinical strain [1]; MRSA,0.4 µg/mL
same,Susceptibility category (S/R) beside zone of inhibition,S. aureus ATCC 2592 [5],S
same,Susceptibility category (S/R) beside zone of inhibition,MRSA clinical strain [10],S
